Test results as given in US7368130B2, “Microparticles” (The Board of Trustees of the University of Illinois, priority 2000, dated 2008).
Entries after “also recorded” stand apart in the source; their conditions may differ.

Assays:
[1] = Encapsulation of rhodamine B in PLGA microspheres, confirmed by fluorescence microscopy; format: physicochemical; details: PLGA microspheres from PLGA/ethyl acetate solution, theoretical loadings 1, 3 and 5%
Description: (§1) The rhodamine B, in its free base form, was dissolved in PLGA/ethyl acetate solutions at theoretical loadings of 1, 3 and 5%(mass drug/mass polymer). Microspheres of uniform 35, 50 and 65 μm diameters were fabricated, hardened and collected using the procedures described in the above examples. The presence of rhodamine had no observable effect on particle uniformity. Encapsulation of rhodamine (˜70% efficiency) was confirmed by fluorescence microscopy (FIG. 6, right). The rhodamine B is released from the spheres over the course of 7-10 days of incubation in PBS and 37° C.

[2] = Release of rhodamine B from PLGA microspheres during incubation in PBS; format: physicochemical; details: 37° C.
Description: as §1

Compound: CCN(CC)c1ccc2c(-c3ccccc3C(=O)O)c3ccc(=[N+](CC)CC)cc-3oc2c1 [rhodamine B]
- encapsulation efficiency [1]: ~70%
- time over which rhodamine B is released from the spheres ([2]; PLGA microspheres of uniform 35, 50 and 65 μm diameters, theoretical loadings 1, 3 and 5% (mass drug/mass polymer), incubation in PBS): 7 to 10 days
- release rate ([2]; dependence on sphere size and drug loading, PLGA microspheres in PBS): faster when spheres were smaller (not shown) or contained more drug; also recorded: faster when spheres contained more drug
